# Reference: patent US20220125882A1, “METHODS AND COMPOSITIONS FOR TREATMENT OF CANCER” (Enzychem Lifesciences Corporation, priority 2019, published 2022)
# Where “and” joins values, the source holds several entries; their conditions need not be identical. Equal values may be shown once. Entries after “also recorded” stand apart in the source; their conditions may differ.
# B1: G-CSF: granulocyte colony-stimulating factor used with neutrophils to co-stimulate MDA-MB-231 cells; form not specified (protein, UniProt P09919 31-207, looked up)
# Granulocyte …: TPLGPASSLPQSFLLKCLEQVRKIQGDGAALQEKLVSECATYKLCHPEELVLLGHSLGIPWAPLSSCPSQALQLAGCLSQLHSGLFLYQGLLQALEGISPELGPTLDTLQLDVADFATTIWQQMEELGMAPALQPTQGAMPAFASAFQRRAGGVLVASHLQSFLEVSYRVLRHLAQP
# B2: PEG-G-CSF: pegfilgrastim, a PEGylated form of filgrastim (recombinant human G-CSF) (protein, UniProt P09919 31-207, looked up)
# Granulocyte …: B1 Granulocyte …
# modifications: PEG, N-terminal methionine
# How the values were obtained:
# [1] = system: 4T1 cell line; assay: 4T1 tumor-bearing mouse model: tumor size and weight on Day 8; format: in vivo, BALB/c mice; conditions: for % weight Increase: % increase (+) or decrease (−) of tumor weight over body weight compared to control; for Tumor Weight Increase: change of average tumor weight compared to control; for Tumor Weight Average / % weight Average: group average; for Tumor Weight No. 1 / % weight No. 1: individual mouse No. 1; for Tumor Weight No. 1: 4T1 tumor-bearing BALB/c mice; for Tumor Weight No. 2 / % weight No. 2: individual mouse No. 2; for Tumor Weight No. 3 / % weight No. 3: individual mouse No. 3; for Tumor Weight No. 4 / % weight No. 4: individual mouse No. 4; for Tumor Weight No. 5 / % weight No. 5: individual mouse No. 5; for % weight Average / % weight No. 1 / % weight No. 2 / % weight No. 3 / % weight No. 4 / % weight No. 5: tumor weight over body weight
# Protocol: On Day 2 and Day 3, the mice were administered 10 mg/kg of gemcitabine twice. On Day 4, 3 μg/mouse of PEG-G-CSF (Pegfilgrastim) was administrated via subcutaneous injection to the mice once. On every day of the study, 50 mg/kg of EC-18 diluted with PBS was administrated orally to the mice. A total of 24 tumor-bearing mice were classified into 5 groups consisting of control group (4 mice, Control), G-CSF administration group (5 mice, PEG-G-CSF), gemcitabine administration group (5 mice, Gemcitabine), G-CSF and gemcitabine co-administration group (5 mice, Gem+PEG), and EC-18 co-administration group (5 mice, Gem+PEG+EC-18), as summarized in Table 1 and FIG. 1A.
# On Day 8, all mice were sacrificed and their tumors removed. The size and weight of the tumors were measured.
# [2] = system: Snail; assay: PCR of EMT marker expression in MDA-MB-231: Snail; format: cell-based; conditions: for Snail PCR band intensity (relative intensity): MDA-MB-231, Neutrophil co-culture, relative to None = 1, Samples 1-3; for expression level of SNAIL: neutrophil and G-CSF co-stimulation group, with or without PLAG
# Protocol: (§1) MDA-MB-231 and HL60 cells were obtained from the American Type Culture Collection (ATCC, Rockville, Md., USA). MDA-MB-231 cells were grown in DMEM medium (WELGENE, Seoul, Korea) containing 10% fetal bovine serum (HyClone, Waltham, Mass., USA), 1% antibiotics (100 mg/l streptomycin, 100 U/ml penicillin), and 0.4% 2-Mercaptoethanol (Sigma Aldrich, St. Louis, Mo., USA). HL60 cells were grown in DMEM medium containing 10% fetal bovine serum and 1% antibiotics (100 mg/l streptomycin, 100 U/ml penicillin). Cells were grown at 37° C. in a 5% CO2 atmosphere. To differentiate HL60 cells into neutrophil-like cells, cells were grown in medium with […] (Sigma Aldrich) for 5 days.
# (§2) Total RNA was extracted using RiboEx (GeneAll biotechnology, Seoul, Korea) according to the manufacturer's instructions, and cDNA was generated using ReverseAids cDNA synthesis kit (Thermo Scientific, Waltham, Mass., USA) according to the manufacturer's instructions. PCR was performed with the following temperature profile: a pre-denaturation step of 10 min at 95° C., followed by 35 cycles of 95° C. for 30 sec, annealing temperature for 30 sec and 72° C. for 30 sec and a final exposure to 72° C. for 10 min. Specific primer sequence for amplification was Table 5.
# [3] = system: TGF-β; assay: TGF-β ELISA of cell supernatants; format: cell-based; conditions: for TGF-β ELISA (450 nm OD): Samples 1-3; for secretion level of TGF-β: TAN and G-CSF costimulation environment, with or without PLAG
# Protocol: as §1
# (§3) The levels of cytokine secretion in the cell supernatants or plasma were analyzed using an enzyme-linked immunosorbent assay (ELISA) specifically for cytokines from BD Bioscience according to the manufacturer's protocol. The absorbance was measured at 450 nm using an EMax Endpoint ELISA microplate reader (Molecular Devices Corporation, Sunnyvale, Calif., USA).
# [4] = system: Smad proteins; assay: Smad protein activity by Western blotting in MDA-MB-231; format: cell-based; conditions: TAN and G-CSF co-stimulation
# Protocol: as §1
# (§4) MDA-MB-231 cells treated with PLAG and stimulated to induce neutrophil and G-CSF co-stimulation for various times at 37° C. in a 5% CO2 atmosphere were lysed using ice-cold IP lysis buffer (25 mM Tris-HCl pH 7.4, 150 mM NaCl, 1% NP-40, 1 mM EDTA, 5% glycerol). Extracted proteins were incubated with Surebeads Protein G specific antibody bound magnetic beads (Bio-Rad, Hercules, Calif., USA). Beads were washed with PBS with Tween 20 (PBST) and target proteins eluted in 1× sample buffer and analyzed by Western blotting.
# [5] = system: SMAD2/3; assay: Confocal immunofluorescence of Smad nucleus translocation in MDA-MB-231; format: cell-based; conditions: TAN and G-CSF co-stimulation
# Protocol: as §1
# MDA-MB-231 cells were seeded in 12 well plate with cover glass, and incubated to 60% confluence at well. After the incubation, treated PLAG and neutrophil and G-CSF co-stimulation for indicate time. After treatment the indicated time at 37° C. in a 5% CO2 atmosphere, the cells were fixed with 3.7% formaldehyde for 20 min and permeabilized with 0.2% Triton X-100 for 20 min for staining. Cells were washed with PBST twice and reacted with specific antibody (SMAD2/3) for over-night at 4° C. Cells were washed with PBST twice and reacted secondary antibody. For nucleus detection, it stained with 1% Hoechst33342 for 20 min. Fluorescence was detected by confocal (Carl Zeiss, Thornwood, N.Y., USA).
# [6] = system: Vimentin; assay: PCR of EMT marker expression in MDA-MB-231: Vimentin; format: cell-based; conditions: for Vimentin PCR band intensity (relative intensity): MDA-MB-231, Neutrophil co-culture, relative to None = 1, Samples 1-3; for expression level of Vimentin: neutrophil and G-CSF co-stimulation group, with or without PLAG
# Protocol: as §1, §2
# [7] = system: SMAD2/3-SMAD4 complex; assay: Immunoprecipitation of Smad complex in MDA-MB-231; format: cell-based; conditions: TAN and G-CSF co-stimulation
# Protocol: as §1, §4
# [8] = system: MDA-MB-231 breast cancer cells; assay: Transwell invasion assay (MTT readout); format: cell-based; conditions: for transwell invasion of the cancer cells: G-CSF and neutrophil co-stimulation group, with or without PLAG; for Invasive cell count (MTT assay, % transform): MDA-MB-231, Samples 1-3
# Protocol: as §1
# Quantitative macrophage chemoattraction assays were performed using a modified Boyden chamber (SPL lifescience, Seoul, Korea) with 8.0-μm pore polycarbonate membrane inserts with matrigel-coated in 24-well plates. The lower chamber was filled with apoptotic neutrophils for chemoattraction. The MDA-MB-231 cells (5×10^4 cells/ml) in serum-free medium were added into the upper chamber and treated with PLAG. The cells were allowed to chemoattraction (Neutrophil co-culture supernatant) for indicate times at 37° C. in a 5% CO2 atmosphere. The non-chemoattracted cells were removed from the upper surface of the membrane by scraping with a cotton swab, and the chemoattracted cells were calculate by MTT assay.
# [9] = system: MDA-MB-231 breast cancer cells; assay: Wound healing assay (mobility), TAN / G-CSF co-culture; format: cell-based; conditions: for mobility of the cancer cells: G-CSF and neutrophil co-stimulation group, with or without PLAG
# Protocol: as §1
# MDA-MB-231 were seeded in 12 well plate with cover glass, and incubated to 100% confluence at well. After the incubation, make the wound cell monolayer on center of well. A treated PLAG and neutrophil and G-CSF co-stimulation for indicate time. After treatment the indicated time and dose at 37° C. in a 5% CO2 atmosphere, the cells were fixed with 3.7% formaldehyde for 20 min and permeabilized with 0.2% Triton X-100 for 20 min and stained with 0.1% Phalloidin-FITC for 40 min. Fluorescence was detected by confocal (Carl Zeiss, Thornwood, N.Y., USA).
# [10] = system: N-cadherin; assay: PCR of EMT marker expression in MDA-MB-231: N-cadherin; format: cell-based; conditions: for N-cadherin PCR band intensity (relative intensity): MDA-MB-231, Neutrophil co-culture, relative to None = 1, Samples 1-3; for expression level of NCAD: neutrophil and G-CSF co-stimulation group, with or without PLAG
# Protocol: as §1, §2
# [11] = system: IFN-γ; assay: IFN-γ ELISA of cell supernatants; format: cell-based; conditions: for IFN-γ ELISA (450 nm OD): Samples 1-3; for secretion of IFN-γ: TAN environment, PLAG treatment, or G-CSF co-stimulation vs neutrophil only group
# Protocol: as §1, §3
Molecule,% weight Increase [1],Tumor Weight Increase ([1]; Day 8),Tumor Weight Average ([1]; Day 8) [×0.01 g],Tumor Weight No. 1 ([1]; Day 8) [×0.01 g],Tumor Weight No. 2 ([1]; Day 8) [×0.01 g],Tumor Weight No. 3 ([1]; Day 8) [×0.01 g],Tumor Weight No. 4 ([1]; Day 8) [×0.01 g],Tumor Weight No. 5 ([1]; Day 8) [×0.01 g],% weight Average ([1]; Day 8) [%],% weight No. 1 ([1]; Day 8) [%],% weight No. 2 ([1]; Day 8) [%],% weight No. 3 ([1]; Day 8) [%],% weight No. 4 ([1]; Day 8) [%],% weight No. 5 ([1]; Day 8) [%],Snail PCR band intensity (relative intensity) [2],expression level of SNAIL [2],TGF-β ELISA (450 nm OD) ([3]; Neutrophil co-culture),secretion level of TGF-β [3],Vimentin PCR band intensity (relative intensity) [6],expression level of Vimentin [6],other results
"Nc1ccn([C@@H]2O[C@H](CO)[C@@H](O)C2(F)F)c(=O)n1 [Gemcitabine, gemcitabine, reference compound]",−22.6%,−25.0%,24 ± 12,38,9,32,27,14,0.97 ± 0.51,1.55,0.36,1.32,1.08,0.54,,,,,,,tumor weight decreased compared to control ([1]; Day 8): about 25%
"CCCCC/C=C\C/C=C\CCCCCCCC(=O)OC(COC(C)=O)COC(=O)CCCCCCCCCCCCCCC (stereo not shown) [PLAG, 1-palmitoyl-2-linoleoyl-3-acetylglycerol]",,,,,,,,,,,,,,,0.531 and 0.749 and 0.527,expression was decreased,0.484 OD and 0.476 OD and 0.474 OD,did not significantly decrease; also recorded: did not change,0.501 and 0.512 and 0.504,expression was decreased,"TGF-β ELISA (450 nm OD) ([3]; without neutrophil): 0.248 OD and 0.287 OD and 0.208 OD; SMAD activity (TGF-β signal pathway) [4]: decreased; nucleus translocation of SMAD2/3 and SMAD4 [5]: decreased; formation of the SMAD2/3-SMAD4 complex [7]: decreases; transwell invasion of the cancer cells [8]: inhibited the cancer cell abnormal-metastasis; Invasive cell count (MTT assay, % transform) ([8]; Neutrophil co-culture): 212.500% and 235.417% and 216.667%; Invasive cell count (MTT assay, % transform) ([8]; without neutrophil): 89.583% and 104.167% and 102.083%; transwell invasion of MDA-MB-231 cells ([8]; neutrophil-stimulated culture sup.): invasion of cancer cells is decreased; mobility of the cancer cells [9]: inhibited the cancer cell abnormal-metastasis; mobility of MDA-MB-231 cells ([9]; neutrophil-stimulated): mobility decreased; N-cadherin PCR band intensity (relative intensity) [10]: 0.723 and 0.747 and 0.732; expression level of NCAD [10]: expression was decreased; IFN-γ ELISA (450 nm OD) ([11]; Neutrophil co-culture): 0.181 OD and 0.158 OD and 0.164 OD; secretion of IFN-γ [11]: significantly increased; IFN-γ ELISA (450 nm OD) ([11]; without neutrophil): 0.144 OD and 0.149 OD and 0.156 OD"
B1,,,,,,,,,,,,,,,2.4 and 2.781 and 1.635,increased,0.439 OD and 0.446 OD and 0.414 OD,increased,1.832 and 1.854 and 1.867,increased,"transwell invasion of the cancer cells [8]: further increased; Invasive cell count (MTT assay, % transform) ([8]; Neutrophil co-culture): 366.667% and 352.083% and 383.333%; mobility of the cancer cells [9]: further increased; N-cadherin PCR band intensity (relative intensity) [10]: 4.517 and 4.511 and 5.214; expression level of NCAD [10]: increased; IFN-γ ELISA (450 nm OD) ([11]; Neutrophil co-culture): 0.139 OD and 0.102 OD and 0.094 OD; secretion of IFN-γ [11]: significantly lower"
B2,+22.7%,+19.4%,38 ± 11,47,30,53,30,31,1.54 ± 0.52,2.02,1.12,2.20,1.20,1.17,,,,,,,tumor weight increased compared to control ([1]; Day 8): about 19.4%
